# In US10689526B2, “N-halamines compounds as multifunctional additives” (BOARD OF REGENTS, THE UNIVERSITY OF TEXAS SYSTEM, priority 2005, dated 2020):
# Experiments:
# S. epidermidis = test: Anti-biofilm functions of N-halamine-containing samples (recovered bacteria, SEM); assay type: cell-based; details: polyurethane samples containing 4% additive, three days of immersion in S. epidermidis
# Description: Preparation of N-halamine-containing materials. In one example, a predetermined amount of Cl-ODDMH (e.g., 1%, 2% and 4% to PU) was added into 5% polyurethane (Noveon) solutions in THF under constant stirring to from a clear solution. The solution was cast onto Teflon sheets in a fume hood at room temperature for 2 days to produce thin films (e.g., 170±10 μm of thickness). The films were further dried under vacuum at 50° C. for 3 days. Cl-ODDMH-containing PU sheets (e.g., 4×4 cm) or discs (e.g., 0.5 cm of diameter) were cut sterilely from the films. Pure PU sheets or discs were prepared under the same conditions as controls.
# Anti-biofilm functions. The samples were immersed individually in sealed tubes containing 5 mL of S. epidermidis broth suspension (10^6-10^7 CFU/mL of bacteria) in a shaking water bath at 37° C. and 30 RPM. […] The solution was serially diluted, and 100 μL of each dilution was plated onto agar plates. The same procedure was applied to the untreated samples as controls. Bacterial colonies were counted after incubation at 37° C. for between about 24 and 48 hours. SEM studies were used to confirm the biofilm controlling function. PU discs with or without the presence of Cl-ODDMH were immersed in 5 mL 10^6-10^7 CFU/mL of S. epidermidis broth suspensions in a water bath at 37° C. and 30 RPM. […]
# [1] = tested on: Escherichia coli (E. coli, ATCC 15597, gram-negative); test: Antimicrobial activity of CADMH in aqueous suspension; assay type: cell-based; details: for contact time for a total kill of 10^8-10^9 CFU/mL of E. coli: 500 ppm of active chlorine content; for % of kill of E. coli / log reduction of E. coli: 1000 ppm of active chlorine content
# Description: (§1) In other examples to evaluate antimicrobial activities of CADMH, Escherichia coli (e.g., E. coli, ATCC® 15597™, gram-negative) and Staphylococcus aureus subsp. aureus (e.g., S. aureus, ATCC® 6538™, gram-positive) were used as model microorganisms to challenge the antimicrobial functions of the samples. In the microbial studies, the bacteria were grown in broth solutions (e.g., LB broth for E. coli; Tryptic Soy broth for S. aureus) overnight at 37° C. Cells were harvested in a centrifuge, washed twice with phosphate buffered saline (e.g., PBS, OmniPur®, NaCl, 8.0 g/L; KCl, 0.20 g/L; Na2HPO4, 1.42 g/L; KH2PO4, 1.36 g/L; pH 7.4), re-suspended in PBS, and then diluted to concentrations of 10^8-9 CFU/mL. A known amount of CADMH (particle size: 60-80 mesh) was dispersed in 10 mL of sterilized distilled water. The mixture was vortexed and then sonicated for 10 minutes. Then, 100 μL of the bacteria suspension were added into the CADMH-containing suspension and the resultant mixture was vortexed for 60 seconds. After a certain period of contact time under constant shaking, the mixture was poured into 90 mL of 0.03 wt % sterilized sodium thiosulfate aqueous solution to quench the active chlorine and stop the antimicrobial test. […] The resulting solutions were vortexed for 2 minutes and then serially diluted, and each dilution was placed onto LB agar (for E. coli) or Tryptic soy agar (for S. aureus). The same procedure was also applied to the correspondent unchlorinated samples as controls. Bacterial colonies on the plates were counted after incubation at 37° C. for 24 hours.
# [2] = tested on: Staphylococcus aureus subsp. aureus (S. aureus, ATCC 6538, gram-positive); test: as above; assay type: cell-based; details: for contact time for a total kill of 10^8-10^9 CFU/mL of S. aureus: 500 ppm of active chlorine content
# Description: as §1
# Solubility in water = assay type: physicochemical
# [3] = DSC and TGA thermal analysis of Cl-BTMP; assay type: physicochemical
# E. coli = test: Antimicrobial activity of CADMH-containing PS or HDPE films (sandwich test); assay type: cell-based
# Description: Preparation of CADMH-containing polymeric materials. PS and HDPE were used as the model polymers to preliminarily evaluate the antimicrobial activities of CADMH as additives. In the preparation of CADMH-containing PS films, a certain amount of CADMH was dissolved in 5% PS solutions in THF. The solution was poured onto glass slides. The glass slides were put in a fume hood for 2 days at room temperature to evaporate most of the solvent, and then further dried in a vacuum oven at 30° C. for 3 days to obtain polymer films (100±10 μm of thickness). To prepare CADMH-containing HDPE films, a predetermined amount of CADMH was added into 5% HDPE solutions in hot o-xylene under constant stirring. After evaporation of the solvent, polymer films having a thickness of about 70±5 μm were obtained by hot pressing at 140° C. for 15 seconds. The chlorine contents of the CADMH-containing PS and HDPE films were determined by iodimetric titration, as described above. Pure PS or HDPE films without the presence of CADMH were prepared using the same procedures as controls.
# Antimicrobial activity of CADMH-containing polymers. In the antimicrobial tests of CADMH-containing PS or HDPE films, 10 μL of E. coli suspensions (e.g., 10^8-10^9 CFU/mL) were placed onto the surface of a film (e.g., 4×4 cm). The film was then covered with another identical film. A 100 grams weight was added onto the whole “sandwich” to ensure sufficient contact. At different contact time, the “sandwich” was transferred into 10 mL of 0.03 wt % sodium thiosulfate aqueous solution to quench the active chlorine of the samples. The mixture was sonicated for 20 minutes and vortexed for 60 seconds to remove the adherent bacteria into the solution. The resultant solution was serially diluted, and each dilution was placed onto LB agar plates. The same procedure was also applied to the pure PS or HDPE films as controls. Bacterial colonies were counted after 24 hours of incubation at 37° C.
# [4] = Storage stability, active chlorine content by iodimetric titration; assay type: physicochemical; details: PS and HDPE films, storage for 4 months at 23±2° C. and 70±5% RH
# Description: After storage for about 4 months under ambient conditions (e.g., 23±2° C., 70±5% RH), all the samples retained more than 96% of their original chlorine contents. The antimicrobial functions were tested monthly during the storage period, and after 4 months of storage, the minimum contact time of the samples for a total kill of 10^8-10^9 CFU/mL of E. coli or S. aureus was unchanged.
# [5] = Thermal properties by DSC; assay type: physicochemical
# Description: Thermal properties of the samples were examined with DSC, and the representative DSC curves are shown in FIG. 6 using DCSDMH and Cl-DCSDMH as examples. […] After chlorination, the N—H bond in DCSDMH is transformed into N—Cl group, and because of the lack of hydrogen bonding, the melting point of Cl-DCSDMH decreases to 52.4° C.
# [6] = 1000 ppm of active chlorine content, 5 minutes of contact
# [7] = 1000 ppm active chlorine content
structure (smiles),measurement,setting,value
CCCCCCCCCCCCCCCCCCN1C(=O)N(Cl)C(C)(C)C1=O [Cl-ODDMH],bacteria recovered from the samples,S. epidermidis,less than 50 CFU/cm^2
CCCCCCN1C(=O)N(Cl)C(C)(C)C1=O [Cl-HDMH],contact time for a total kill of 10^8-10^9 CFU/mL of E. coli,[1],30 minutes
same,% of kill of E. coli,[1]; 5 minutes of contact,99%
same,log reduction of E. coli,[1]; 5 minutes of contact,2 log
same,% of kill of E. coli,[1]; contact time 15 minutes,99.999%
same,log reduction of E. coli,[1]; contact time 15 minutes,5 log
same,contact time for a total kill of 10^8-10^9 CFU/mL of S. aureus,[2],30 minutes
same,% of kill of S. aureus,[2]; [6],100%
same,log reduction of S. aureus,[2]; [6],7 log
same,log reduction of S. aureus,"[2]; 1000 ppm of active chlorine content, contact time 15 minutes",8 log
same,solubility in water (in words),Solubility in water,insoluble
"CC1(C)CC(OC(=O)CCCCCCCCC(=O)OC2CC(C)(C)N(Cl)C(C)(C)C2)CC(C)(C)N1Cl [Cl-BTMP, bis(N-chloro-2,2,6,6-tetramethyl-4-piperidinyl) sebacate]",thermally stable up to,[3],up to 200 °C
CCN1C(=O)N(Cl)C(C)(C)C1=O [Cl-EDMH],contact time for a total kill of 10^8-10^9 CFU/mL of E. coli,[1],less than 5 minutes
same,contact time for total kill of E. coli,[1]; [7],less than 5 minutes
same,contact time for a total kill of 10^8-10^9 CFU/mL of S. aureus,[2],less than 5 minutes
same,contact time for total kill of S. aureus,[2]; [7],less than 5 minutes
same,solubility in water,Solubility in water; 23° C.,ca. 3 g/L
CCCCCCCCCCCCCCCCCCCCCCN1C(=O)N(Cl)C(C)(C)C1=O [Cl-DCSDMH],contact time for a total kill of 10^8-10^9 CFU/mL of E. coli,[1],60 minutes
same,contact time for a total kill of 10^8-10^9 CFU/mL of S. aureus,[2],60 minutes
same,contact time for a total kill of 10^8-10^9 CFU/mL of E. coli,E. coli; 1% additive in HDPE films,4 hours
same,contact time for a total kill of 10^8-10^9 CFU/mL of E. coli,E. coli; 1% additive in PS films,4 hours
same,antimicrobial activities of the films after storage,"E. coli; PS and HDPE films, storage for 4 months at 23±2° C. and 70±5% RH",no changes
same,solubility in water (in words),Solubility in water,insoluble
same,active chlorine contents of the films after storage,[4],no changes
same,exothermic peak in the DSC curve (decomposition of the N—Cl bond),[5],176.0 °C
